System: Colo205 colon cancer xenograft
Assay: Colo205 colon cancer xenograft model, tumor growth inhibition and delay
Format: in vivo, Female athymic nude mice
Conditions: LBH589 30 mg/kg iv Mon/Wed/Fri for 3 weeks, 5-FU 75 mg/kg ip once a week for 3 weeks, or both
Protocol: Female athymic nude mice-were implanted subcutaneously with Col6205 colon cancer cells. When tumors reached a medan tumor volume of 220 mm3, mice were randomized into groups of 10 mice. Mice were treated with LBH589 at 30 mg/kg intravenously on Monday, Wednesday, Friday per week for 3 weeks, 75 mg/kg of 5-Fluorouracil intraperitoneally once a week for 3 weeks, or combination of the two agents. For tumor growth inhibition (FIG. 2A), compound activity was measured as the percent change in tumor volume of treated animals over control animals (% T/C). The percentage of regression was determined as the percent change in the final tumor volume at the end of the study over the starting tumor volume. For tumor growth delay (FIG. 2B), compound activity was measured as the change in median calculated time to the study end point (TTE), which was predefined as tumor volume of 1000 mm^3.

## O=c1[nH]cc(F)c(=O)[nH]1 [5-FU, 5-Fluorouracil, reference compound]
  tumor growth inhibition (TGI) and tumor growth delay (TGD): led to tumor growth inhibition (TGI) and tumor growth delay (TGD)
Vehicle 39.5 days
  Median TTE (time to study end point, tumor volume of 1000 mm^3): 44.5 days

Source: patent US20100137398A1, “USE OF HDAC INHIBITORS FOR THE TREATMENT OF GASTROINTESTINAL CANCERS” (NOVARTIS AG, priority 2007, published 2010)
